Assays:
Format in all cases: biochemical
EC_GatY = biological target: T1, EC_GatY (Escherichia coli, UniProt P0C8J6); assay: coupled NADH oxidation assay (TPI, G3PDH); conditions: 1 mM substrate, 10 mM MgCl2, pH 8.0, 25 °C
T1 construct: gene gatY; catalytic subunit alone without GatZ, His-tagged, pET-28a(+), 30 kDa

EC_KbaY = biological target: T2, EC_KbaY (Escherichia coli, UniProt P0AB74); assay: coupled NADH oxidation assay (TPI, G3PDH); conditions: 1 mM substrate, 10 mM MgCl2, pH 8.0, 25 °C
T2 construct: gene kbaY; catalytic subunit alone without KbaZ, His-tagged, pET-28a(+), 31 kDa

FruK (EC_FruK) [1] = biological target: T3, FruK (EC_FruK) (Escherichia coli, UniProt P0AEW9, A39S); assay: coupled NADH oxidation assay (GatY, TPI, G3PDH); conditions: 2 mM ATP, 2 mM substrate, 10 mM MgCl2, pH 8.0, 25 °C
T3 construct: His-tagged, pET-28a(+), expressed in E. coli BL21(DE3)

FruK (EC_FruK) [2] = biological target: T4, FruK (EC_FruK) (Escherichia coli, UniProt P0AEW9); assay: coupled NADH oxidation assay (FbaA, TPI, G3PDH); conditions: 2 mM ATP, 2 mM substrate, 10 mM MgCl2, pH 8.0, 25 °C
T4 construct: His-tagged, pET-28a(+), expressed in E. coli BL21(DE3)
T4 sequence (P0AEW9 whole entry): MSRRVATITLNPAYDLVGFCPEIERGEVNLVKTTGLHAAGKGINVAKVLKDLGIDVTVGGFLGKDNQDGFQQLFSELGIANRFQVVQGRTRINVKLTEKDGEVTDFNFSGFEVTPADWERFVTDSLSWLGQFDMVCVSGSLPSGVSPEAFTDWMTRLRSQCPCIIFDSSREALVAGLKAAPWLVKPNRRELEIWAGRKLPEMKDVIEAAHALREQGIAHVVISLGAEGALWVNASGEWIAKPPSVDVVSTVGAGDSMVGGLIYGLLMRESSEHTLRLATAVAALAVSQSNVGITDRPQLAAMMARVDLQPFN

T1 sequence (P0C8J6 whole entry): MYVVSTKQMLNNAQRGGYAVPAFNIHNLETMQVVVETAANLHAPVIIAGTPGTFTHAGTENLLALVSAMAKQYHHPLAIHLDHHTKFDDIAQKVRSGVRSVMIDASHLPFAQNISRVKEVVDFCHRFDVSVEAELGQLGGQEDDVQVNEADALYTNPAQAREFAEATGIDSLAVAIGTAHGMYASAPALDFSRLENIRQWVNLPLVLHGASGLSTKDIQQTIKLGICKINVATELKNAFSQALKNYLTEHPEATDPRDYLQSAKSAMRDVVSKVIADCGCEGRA
T3 sequence (P0AEW9 whole entry A39S): as the sequence (P0AEW9 whole entry) above, with A39S counted along it
T2 sequence (P0AB74 whole entry): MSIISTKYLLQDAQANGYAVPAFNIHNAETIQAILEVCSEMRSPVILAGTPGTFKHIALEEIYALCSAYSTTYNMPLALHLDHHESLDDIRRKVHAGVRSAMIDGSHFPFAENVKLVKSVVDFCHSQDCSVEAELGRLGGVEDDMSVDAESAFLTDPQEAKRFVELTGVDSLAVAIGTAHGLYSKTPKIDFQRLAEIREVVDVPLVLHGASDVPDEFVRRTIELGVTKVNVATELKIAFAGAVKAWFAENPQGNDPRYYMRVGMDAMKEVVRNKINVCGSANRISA

## O=P(O)(O)OC[C@H]1OC(O)(COP(=O)(O)O)[C@@H](O)[C@H]1O (stereo partly drawn) [D-Tag-1,6-BP]
EC_GatY
  coupled NADH oxidation assay (TPI, G3PDH): EC_GatY and EC_KbaY showed much lower D-Tag-1,6-BP cleavage activity than BL_GatY
EC_KbaY
  coupled NADH oxidation assay (TPI, G3PDH): EC_GatY and EC_KbaY showed much lower D-Tag-1,6-BP cleavage activity than BL_GatY

## O=P(O)(O)OC[C@H]1OC(O)(CO)[C@@H](O)[C@H]1O (stereo partly drawn) [D-Tag-6P]
FruK (EC_FruK) [1]
  coupled NADH oxidation assay (GatY, TPI, G3PDH): FruK_A39S showed relatively higher activities for D-Tag-6P than FruK_WT

## O=P(O)(O)OCC1(O)O[C@H](CO)[C@@H](O)[C@@H]1O (stereo partly drawn) [D-Fru-1P]
FruK (EC_FruK) [2]
  coupled NADH oxidation assay (FbaA, TPI, G3PDH): for primary D-Fru-1P were much lower than that of FruK_WT

Reference: paper PMC10101011, “A Retro-Aldol Reaction Prompted the Evolvability of a Phosphotransferase System for the Utilization of a Rare Sugar” (Microbiology Spectrum, 2023)
